Entries after “also recorded” stand apart in the source; their conditions may differ.
How the values were obtained:
[1] = test system: splenocytes; details: shown previously (Grigorian et al. 2011); cited from earlier work
[2] = test system: EAE mice; assay: Flow cytometry of spinal cord and circulating leukocytes in EAE mice; assay type: in vivo, mouse
From the text: To assess the inflammatory profile of circulating leukocytes, we performed flow cytometry using a modified protocol published previously [Bellavance, M. A., Gosselin, D., Yong, V. W., Stys, P. K. & Rivest, S. Patrolling monocytes play a critical role in CX3CR1-mediated neuroprotection during excitotoxicity. Brain Struct Funct 220, 1759-76 (2015)]. Briefly, mice were anaesthetized using ketamine/xylazine, after which blood was drawn via cardiac puncture. Heparin-coated syringes were used to draw approximately 130 μL of blood, which was then subsequently diluted with 70 μL of Hanks' Balanced Salt Solution (HBSS; Gibco) without calcium and magnesium. Fc receptors were then blocked by addition of Mouse BD Fc Block (1:100; BD Pharmingen) for 30 minutes at 4° C. Primary antibodies (1:50) were then added and incubated for 45 minutes at 4° C. The primary antibodies used were CD45-PerCP (BD Pharmingen; Clone 30-F11), CD11b-FITC (BD Pharmingen; Clone M1/70), Ly6G-APC-Cy7 (BD Pharmingen; Clone 1A8), Ly6C-V450 (BD Horizon; Clone AL-21), and CD3-PE (BD Pharmingen; Clone 17A2). Red blood cells were then lysed by rocking samples at room temperature for 12 minutes with 1 mL of BD FACS Lysing Solution (BD Biosciences). Samples were then washed at 1200 rpm for 10 minutes at 4° C., followed by two more washes at 2000 rpm for 3 minutes at 4° C. Prior to acquisition on a flow cytometer (BD LSRII), cells were then fixed in 1% formalin for 10 minutes and then resuspended in HBSS without calcium and magnesium.
For flow cytometry of the spinal cord, spinal cords were dissected following a PBS perfusion. The thoracic and lumber sacral part of isolated spinal cords were separated into neural and leucocyte populations by density gradient centrifugation using isotonic Percoll (GE Healthcare). The leukocytes samples were prepared at 4° C. in fluorescence-activated cell sorting (FACS) buffer solution (BD Biosciences) and Fc receptors were then blocked by addition of Mouse BD Fc Block (1:100; BD Pharmingen) for 30 minutes at 4° C. The cells were stained with antibodies against CD45-PerCP (BD Pharmingen; Clone 30-F11), CD11b-FITC (BD Pharmingen; Clone M1/70) and CD3-APC-Cy7 (BD Pharmingen; Clone 17A2) for 45 minutes and then washed three times with FACS buffer. The cells were fixed in 1% buffered formalin for 10 min and resuspended in the 200 μl of the FACS buffer.
Data acquisition was performed on a flow cytometer (BD FACSAria; BD Biosciences) and analysed with FlowJo software (version 8.6, TreeStar). To ensure proper compensation and gating, unstained samples, appropriate isotype controls, and single-stain controls were included. All data was analyzed using FlowJo software.

[3] = test system: splenocytes; assay: Propidium iodide DNA cell cycle flow cytometry of splenocytes; assay type: cell-based, mouse; details: activated splenocytes
From the text: Cell-cycle flow cytometry with propidium iodide was used to corroborate the above results, and ensure the reduction in proliferation was not due to cell death. […] To further investigate whether the reduction of proliferation was due to cell death, Annexin V and propidium iodide staining were used to differentiate necrotic cells (propidium iodide+), apoptotic cells (annexin V+), dead cells (propidium iodide+ and annexin V+), and live cells (propidium iodide-annexin V−).
Cell cycle staining with propidium iodide (PI) and analysis by flow cytometry gives percentage of cells in apoptosis, G1, G2, and synthesis, and apoptosis. Following a membrane permeabilization, PI chelates to DNA and level of staining specifies the stage of the cell cycle (e.g., G2 phase will have twice the DNA and thus twice the PI signal as G1 phase, apoptotic cells contain less DNA than healthy cells and are identified by low PI staining). 1×10^6 splenocytes were used per sample, with four replicates per condition. Cells were collected into a tube with PBS and centrifuged (200 r.p.m. for 5 minutes). […] Suspension was transferred to a FACs tube and analyzed. Annexin V/Propidium iodide staining was detected using the Annexin V FITC apoptosis detection kit (BD Biosciences, #556547), which was performed according to manufacturer's instructions.

[4] = 25 mg/kg daily day 7 to 15, lumbar/thoracic spinal cord
[5] = 25 mg/kg daily day 7 to 15, spinal cord

| Structure (SMILES) | splenocyte proliferation [1] | circulating monocyte, neutrophil and lymphocyte populations ([2]; 25 mg/kg daily day 7 to 15, blood at peak EAE) | CD45+ CD3+ T lymphocytes within the spinal cord [2, 4] | CD45HiCD11b+ infiltrating monocytes/macrophages in spinal cord [2, 4] | median fluorescence intensity of CD11b of CD11b+CD45+ cells [2, 5] | median fluorescence intensity of CD45 in CD11b+CD45+ cells [2, 5] | percentage of cells in cell cycle phases [3] |
| --- | --- | --- | --- | --- | --- | --- | --- |
| CC(=O)N[C@H]1[C@H](OC(C)=O)O[C@H](COC(C)=O)[C@@H](OC(C)=O)[C@@H]1OC(C)=O [Compound 1, reference compound] | reduction in splenocyte proliferation | – | – | – | – | – | – |
| CC(=O)NC1C(OC(C)=O)OC(COC(C)=O)C(F)(F)[C@@H]1OC(C)=O (mixture of isomers) [Compound 16, 2-Acetamido-1,3,6-tri-O-acetyl-2,4-dideoxy-4,4-difluoro-α/β-D-xylo-hexopyranose] | – | no significant difference; also recorded: did not show changes in monocyte or lymphocyte populations; also recorded: did not affect levels of circulating leukocytes | significantly lowered | significantly decreased | significantly reduced | decreased | reduced the percentage of cells in the S (DNA synthesis)-phase of the cell cycle |

Source: patent US12600740B2, “Fluorinated N-acetyl glucosamine analogs and xylose derivatives” (UTI Limited Partnership, priority 2018, dated 2026)
